Data as given in article PMC7216235, “The Ionophoric Activity of a Pro-Apoptotic VEGF165 Fragment on HUVEC Cells” (International Journal of Molecular Sciences, 2020).

Experiments:
[1] = test system: HUVEC cells; assay: Cell viability assay (MTS); assay type: cell-based, human; details: for reduction of cell viability at the higher dose tested: time at which it starts (in words): 50 µM peptide, 24 h and 48 h
Description: HUVECs were maintained in EGM®-2 BulletKit® medium. Cells were grown to 80% confluence at 37 °C in a humid atmosphere in the presence of 5% CO2. Passages 2–5 were used. Cells were starved for 12 h, using endothelial cell basal medium (EBM®-2 basal medium, 0,2% Fetal Bovine Serum) before all experiments.
The MTS assay (CellTiter 96® AQueous One Solution, Promega) was performed to compare the viability of cells treated with different concentrations of peptides (VEGF73-101, VEGF84-101 VEGFQ79G, and VEGFI83G) and CuSO4, and their complexes. We considered two different growth conditions for our treatments to be examined, to which we refer in this paper as proliferation conditions or survival conditions. Proliferation condition: Cells (3 replicates) were seeded in 96-well plates at a density of 1.5 × 10^3 cell/well, treated in EGM®-2 BulletKit®, 2% Fetal Bovine Serum (FBS) without VEGF supplementation. Survival condition: Cells (3 replicates) were seeded in 96-well plates at a density of 3 × 10^3 cell/well in an EBM®-2 basal medium of 0.2% FBS without supplements and VEGF. MTS assay was used following 24 h or 48 h of treatments according to the manufacturer’s instructions. The required copper and peptides were pre-mixed together in water in order to allow peptide/copper complexes formations before their addition to the cells. When the experiments were performed in the presence of bathocuproine disulfonic acid disodium salt (BCS), in proliferation condition, 50 µM of the copper chelator was added during the treatment for 24 h. The results were reported as the percentage of viable cells, with respect to the control set, to 100%.

[2] = test system: HUVEC cells; assay: Annexin V-FITC/PI staining, flow cytometry; assay type: cell-based, human; details: 72 h; for induction of apoptosis (in words): 5 µM peptide, EBM-2 0.2% FBS, PI/Annexin V, two experiments in triplicate
Description: Annexin V/ PI is a commonly used approach for studying apoptotic cells. Propidium iodide (PI) is widely used in conjunction with Annexin V to determine if cells are viable, apoptotic, or necrotic through differences in plasma membrane integrity and permeability. The fluorescence of AnnexinV-FITC/PI assay was read using flow cytometry. HUVEC cells were seeded on a 12-well plate at a density of 2.5 ×10^4 and grown for 48 h before treatments. During the last 24 h cells were starved in the same EBM-2 basal medium containing 0.2% fetal bovine serum without EC (endothelial cell) supplements. Cells were then exposed to 5 µM peptide for 72 h. When required, 10 µM CuSO4 was used in combination with peptides. Five hours of incubation in the presence of 1 µM STS (staurosporine) was used as a positive control for cell death. Cells were harvested and stained with Annexin V-FITC (Fluorescein isothiocyanate) and propidium iodide using an annexin V-FITC apoptosis detection kit (Life technologies, Monza (MB), Italy), following the manufacturer’s instructions. Briefly, cells were pelleted and resuspended in 800 µL PBS buffer containing 20 µL of annexin V, 20 µL of propidium iodide, and PI (Annexin V/Dead Cell Apoptosis Kit (Invitrogen), and kept for 10 min at 25 °C in the dark. Samples were analyzed within 1 h by flow cytometry using a CyFlow® ML (Sysmex Partec Milan-Italy). The fluorescent scatter plots indicated three types of cell populations: viable (Annexin V-FITC−/PI−), dead (Annexin V-FITC + /PI+), and apoptotic (Annexin V-FITC + /PI−). Quadrant analysis (FlowMax software -Partec) was performed on the gated fluorescent scatter plot to examine the percentage of live, dead, and apoptotic cell populations. Experiments were repeated twice in triplicate.
Sample were analyzed, 2 × 10^4 cells per sample, using a CyFlow® ML flow cytometer (Partec) system equipped with three laser sources and 10 optical parameters with dedicated filter setting and a high numerical aperture microscope objective (50× NA 0.82) for the detection of different scatter and fluorescence signals. […]

[3] = RP-HPLC retention time on PepMap C18 column (UHPLC-ESI MS) as a measure of peptide hydrophobicity; assay type: physicochemical; details: used by the paper as measure of relative hydrophobicity, amidated-acetylated peptides, PepMap C18 column 300Å (75 μm × 150 mm), linear gradient 2% to 99% B (20% water–80% acetonitrile) with 0.1% FA over 40 min, 0.3 µL/min, 40 °C
Description: Here, we tested peptide lipophilic features by high-performance liquid chromatography using a reverse phase RP18 column.
To evaluate the relative hydrophobicity of the peptides, the retention times of amidated-acetylated peptides were recorded on a PepMap C18 column 300Å (75 μm × 150 mm) using a linear gradient from 2% to 99% of B (20% water–80% acetonitrile) containing 0.1% FA over 40 min, at a flow rate of 0.3 µL/min. The injection volume was 5 μL for analysis. The Q-exactive mass spectrometer was equipped with nano electrospray ion source (Nano EASY-Spray). The thermostatted column compartment was at 40 °C. The optimized parameters of mass spectrometry were illustrated as below: spray voltage, + 3.0 kV; capillary temperature, 250 °C; full MS; resolution, 70,000; automatic gain control (AGC) target, 3.0 × 10^6; maximum injection time (IT), 200 ms; scan range, 150–2000m/z. Nitrogen was used for spray stabilization. All data collected in profile mode were acquired and processed using Thermo Xcalibur 3.0 software.

[4] = Model membrane permeabilization assay: release of 6-carboxyfluorescein from dye-filled LUVs; details: 10 µM peptide, 200 µM LUVs 5:3:2 POPC/POPE/POPS, 10 mM phosphate buffer, 100 mM NaCl, pH 7.4, 25 °C, after 800 min, fluorescence λex 494/λem 520 nm, average of three experiments
Description: Figure 2 Dye release (membrane leakage) from model membranes induced by VEGF73-101, VEGF84-101, VEGFQ79G, and VEGFI83G. Kinetics of dye release from 200 µM LUVs of 5:3:2 POPC/POPE/POPS in the presence of 10 µM of each peptide. All experiments were performed in 10 mM phosphate buffer, 100 mM NaCl, pH 7.4, at 25 °C. Results are the average of three experiments.
Figure 7 Peptide induced release of 6-carboxyfluorescein from 200 μM POPC:POPE:POPS LUVs measured in the presence of (a) 10 μM peptides/Cu and (b) 10 μM VEGF73-101 (magenta curve) and its 1:1 Cu(II) complex (black curve), 10 μM VEGFI83G (green curve) and its 1:1 Cu(II) complex (blue curve). Experiments were in triplicate at 25 °C in 10 mM phosphate buffer, 100 mM NaCl, pH 7.4.
Model membranes were prepared according to a procedure described elsewhere. To mimic the lipid composition of endothelial cell membranes, we used POPC:POPE:POPS (5:3:2 molar ratio) lipid mixture. Multilamellar vesicles (MLVs) were obtained by vortexing a chloroform lipid solution under a gentle nitrogen flow. Next, the lipid solution was dried overnight in a vacuum at room temperature in a round-bottomed flask to remove all the residual solvent. […] Pore formation in the lipid bilayer was monitored by measuring the increase in fluorescence emission intensity due to dye dilution (dequenching) in the buffer upon membrane leakage. […]

[5] = survival conditions (EBM2, 0.2% FBS without growth factors), MTS

Molecule | cell viability of Cu(II) alone (in words) ([1]; 24 h, same concentrations as in the complexes, survival and proliferation conditions, MTS (Figure 9)) | induction of apoptosis (in words) [2] | live cells in the presence of Cu(II) (in words) ([2]; peptide 5 µM with copper(II) 10 µM, PI/Annexin V (Figure 10)) | RP-HPLC retention time tR [3] | dye release (membrane leakage) [4] | cell viability (in words) ([1]; 5 µM peptide, 48 h, survival conditions (EBM2, 0.2% FBS without growth factors), MTS) | reduction of cell viability at the higher dose tested: time at which it starts (in words) [1, 5] | effect of the copper chelator BCS on the peptide's effect on cell viability (in words) ([1]; BCS 50 µM, 24 h, proliferation conditions, no added copper, MTS (Figure S10))
O=S(=O)([O-])[O-].[Cu+2] [Cu(II), copper sulfate, reference compound] | had no effects |  |  |  |  |  |  | 
Ac-ESNITMQIMRIKPHQGQHIGEMSFLQHNK-NH2 [VEGF73-101] |  | able to induce apoptosis | caused a decrease in live cells | 21.7 min | ~5% | significantly decrease cell viability | starting at 24 h | not significantly altered by BCS
Ac-ESTNIMGIMRIKPHQGQHIGEMSFLQHNK-NH2 [VEGFQ79G, VEGF73-101 with point mutation in position 79 (Gln-Gly)] |  |  |  | 21.4 min |  |  | starting at 48 h | 
Ac-ESTNIMQIMRGKPHQGQHIGEMSFLQHNK-NH2 [VEGFI83G, VEGF73-101 with point mutation in position 83 (Ile-Gly)] |  |  |  | 20.4 min |  |  | starting at 24 h | 
Ac-KPHQGQHIGEMSFLQHNK-NH2 [VEGF84-101] |  | Neither the shorter sequence (VEGF84-101), nor the single mutated peptides induced apoptosis |  | 18.2 min |  |  | all peptides (except VEGF84-101) were able to reduce cell viability | 
